Experiments:
[1] = test system: NCI-N87 (HER2-positive gastric cancer cell line); assay: antiproliferative effect, NCI-N87; assay type: cell-based; settings: 72 hours
Procedure: (§1) The antiproliferative effects were measured after treating Compounds 1 to 22 for 72 hours on HCT15 (HER2-positive colorectal cancer cell line), NCI-N87 (HER2-positive gastric cancer cell line), T47D (HER2-negative breast cancer cell line), and HeLa (HER2-negative cervical cancer cell line). As a result, strong antiproliferative effects were generally observed in the NCI-N87 cell line (Table 2).
(§2) The antiproliferative effects of the candidate compound, resulting from HER2 inhibition, were evaluated. Specifically, to confirm the anticancer effects of the candidate compound, cancer cells were seeded at a density of 10^4 cells/well in a 96-well cell culture plate for 20 hours. The cells were starved in serum-free media for 4 hours, followed by replacement with media containing the compound at specified concentrations. The cells were then incubated for 72 hours under conditions of 5% CO2 at 37 °C. Cell viability was determined by adding 5 μL of EZ-CytoX to each well and measuring absorbance at 450 nm. The measurements were performed using an ELISA Microplate Reader (VersaMax, Molecular Devices).

[2] = test system: T47D (HER2-negative breast cancer cell line); assay: antiproliferative effect, T47D; assay type: cell-based; settings: Homo sapiens, 72 hours
Procedure: as §1, §2

[3] = biological target: T1, MED23^D400A/H449G (Homo sapiens, UniProt Q9ULK4, D400A/H449G); assay: LC-MS/MS protein-small molecule interaction, double mutant; assay type: binding; settings: FLAG pulldown
T1 construct: FLAG pulldown, LC-MS/MS
Procedure: HEK293 cells were seeded in a […] and incubated until they reached 70-80% confluency. The cells were transfected with p3Xflag-myc-CMV26-MED23^WT and p3Xflag-myc-CMV26-MED23^D400A/H449G plasmids for 24 hours, followed by lysis to obtain protein extracts. To isolate the candidate compound (YK1) bound to MED23, total lysates were incubated with YK1 for 4 hours and subsequently subjected to pulldown using FLAG-agarose beads (Sigma Aldrich, USA). The precipitated beads were washed at least three times to completely remove unbound compounds. To separate the candidate compound from the precipitated MED23, 50 μL of the sample was extracted with 1 mL of acetonitrile and centrifuged at 13,000 rpm at 4 °C for 10 minutes. The supernatant (1,000 μL) from each sample was transferred to a new tube and dried under nitrogen gas at 37 °C. For YK1 analysis, the residue was dissolved in 50 μL of ACN and vortexed for 10 minutes. […] The mixture was then extracted with 450 μL of ACN by ultrasonic treatment and vortex mixing. The candidate compound bound to MED23 was finally analyzed using an Agilent 6460 triple quadrupole mass spectrometer (Agilent Technologies, USA).

[4] = biological target: MED23391-625 fragment (Homo sapiens, UniProt Q9ULK4); assay: LC-MS/MS protein-small molecule interaction, MED23 fragments; assay type: binding
[5] = biological target: EGFR (Homo sapiens, UniProt P00533); assay: kinase profiling, EGFR; assay type: biochemical; settings: read-out: In vitro kinase inhibitory activity (%)
Procedure: Kinase inhibitory activity of the candidate compound at 10 μM and 25 μM was assessed using Eurofins Kinase Profiling Services. Inhibitory effects on c-RAF, EGFR, ErbB2, ErbB4, and PI3 kinase were analyzed according to the Kinase Profiler Service Assay protocol.

[6] = test system: HER2; assay: IHC of NCI-N87 xenograft tumors, HER2; assay type: in vivo, mice; settings: vs control group
Procedure: (§3) Xenograft mice were generated to evaluate the anticancer effects of the candidate compound. NCI-N87 and JIMT-1 cells (5×10^6 cells), dissolved in 100 μL of 1× phosphate-buffered saline (PBS), were subcutaneously injected into the right flanks of 5-week-old female athymic nude mice (Envigo, USA) or 4-week-old female NOD-SCID mice (Koatech, South Korea). When the tumors reached a volume of 90-100 mm^3, the mice were randomized into designated groups. For the NCI-N87 xenograft, intravenous administration was performed six times at 3-day intervals. For the JIMT-1 xenograft, intraperitoneal administration was performed eight times at 3-day intervals. […] Tumor size changes were monitored until the mean tumor size in the control group reached 2,000-2,500 mm^3. On day 28 for the NCI-N87 xenograft and day 46 for the JIMT-1 xenograft, the mice were sacrificed, and tumors were excised to determine relative tumor sizes. Tumor length (L) and width (W) were measured with calipers, and tumor volume was calculated using the formula: […]
(§4) For immunohistochemistry (IHC) analysis, tumors from the xenograft models were prepared as paraffin-embedded sections. […] The control group was counterstained with hematoxylin, and the IHC staining was evaluated under an optical microscope at 200× magnification.

[7] = test system: Ki-67; assay: IHC of NCI-N87 xenograft tumors, Ki-67; assay type: in vivo, mice; settings: vs control group
Procedure: as §3, §4

[8] = permeability; assay type: in vitro ADME
[9] = pharmacokinetic profiling; assay type: in vivo
[10] = test system: TZMB-sensitive cells; assay: treatment of TZMB-sensitive cells; assay type: cell-based; settings: parent BT474 and NCI-N87
Procedure: (§5) The ability of the candidate compound to overcome trastuzumab resistance was evaluated.

[11] = test system: HER2 and downstream signaling (phosphorylated AKT and MAPK); assay: HER2 expression and downstream signaling, TZMB-sensitive and -resistant cells; assay type: cell-based
Procedure: For western blot analysis, cells were seeded in a 6-well plate and lysed in 1×RIPA lysis buffer (Cell Signaling, USA) containing 1% 0.1 M [COMPOUND LEFT OUT] and 1% 100× protease inhibitor cocktail solution (Genedepot, USA). Total protein levels were standardized using the Pierce™ BCA Protein Assay Kit (Thermo Fisher Scientific, USA) and a microplate reader (Tecan Group Ltd., Switzerland). A total of 20 μg of protein was loaded onto a 10-15% SDS-PAGE acrylamide gel and transferred to a 0.2 μm PVDF membrane (Pall Life Science, USA). The membrane was blocked with 5% skim milk or 5% BSA, and the membrane was cultured with primary antibodies (purchased from Thermo Fisher, Cell Signaling, Santa Cruz, Novus, or MBL) at room temperature for 3 hours or overnight at 4 °C. The blot was washed three times with Tris-buffered saline containing 0.1% Tween20 (1×TBST) and incubated with an HRP-conjugated secondary antibody (GeneTex, USA). Protein bands were detected using ECL solution reagents (GE Healthcare, USA) and the LAS-3000 imaging system (Fuji Photo Film Co., Ltd., Japan), and captured images were analyzed using Multi-Gauge software (Fuji Photo Film Co. Ltd.). The preparation of cell lysates for subsequent analyses was performed using the same method as described for western blot analysis.
as §5

[12] = test system: TZMB-resistant cells; assay: clonal analysis; assay type: cell-based; settings: 14 days; TZMB 10 or 20 μg/mL, YK1 0.5 or 1 μM
Procedure: To validate the above results, clonal analysis was performed. […] The incubated cells were fixed with 100% methanol for 1 hour and then stained with 200 μL of crystal violet solution per well. After washing the cells with tap water, images were captured using a ChemiDoc bio-image analyzer (Bio-Rad), and quantification was performed with ImageJ software (NIH, Bethesda, MD, USA). All processes following the fixation were conducted at room temperature.

[13] = test system: JIMT-1 xenograft; assay: JIMT-1 xenograft, tumor growth; assay type: in vivo, mice; settings: 4 mg/kg, intraperitoneal, eight times at 3-day intervals
Procedure: as §3

[14] = test system: HER2; assay: JIMT-1 xenograft, HER2 levels; assay type: in vivo, mice; settings: 4 mg/kg
Procedure: as §3, §4

[15] = test system: Ki-67; assay: JIMT-1 xenograft, Ki-67; assay type: in vivo, mice; settings: 4 mg/kg, vs TZMB-treated group
Procedure: as §3, §4

[16] = JIMT-1 xenograft, body weight; assay type: in vivo, mice; settings: 4 mg/kg
Procedure: Xenograft mice were generated to evaluate the anticancer effects of the candidate compound. […] When the tumors reached a volume of 90-100 mm^3, the mice were randomized into designated groups. […] For the JIMT-1 xenograft, intraperitoneal administration was performed eight times at 3-day intervals. […] Tumor size changes were monitored until the mean tumor size in the control group reached 2,000-2,500 mm^3. On day 28 for the NCI-N87 xenograft and day 46 for the JIMT-1 xenograft, the mice were sacrificed, and tumors were excised to determine relative tumor sizes. Tumor length (L) and width (W) were measured with calipers, and tumor volume was calculated using the formula:
To assess resistance-avoidance effects in vivo, JIMT-1 xenograft mice were treated with 4 mg/kg of the candidate compound or TZMB.

Chain of EGFR (P00533 669-1210 limits assumed): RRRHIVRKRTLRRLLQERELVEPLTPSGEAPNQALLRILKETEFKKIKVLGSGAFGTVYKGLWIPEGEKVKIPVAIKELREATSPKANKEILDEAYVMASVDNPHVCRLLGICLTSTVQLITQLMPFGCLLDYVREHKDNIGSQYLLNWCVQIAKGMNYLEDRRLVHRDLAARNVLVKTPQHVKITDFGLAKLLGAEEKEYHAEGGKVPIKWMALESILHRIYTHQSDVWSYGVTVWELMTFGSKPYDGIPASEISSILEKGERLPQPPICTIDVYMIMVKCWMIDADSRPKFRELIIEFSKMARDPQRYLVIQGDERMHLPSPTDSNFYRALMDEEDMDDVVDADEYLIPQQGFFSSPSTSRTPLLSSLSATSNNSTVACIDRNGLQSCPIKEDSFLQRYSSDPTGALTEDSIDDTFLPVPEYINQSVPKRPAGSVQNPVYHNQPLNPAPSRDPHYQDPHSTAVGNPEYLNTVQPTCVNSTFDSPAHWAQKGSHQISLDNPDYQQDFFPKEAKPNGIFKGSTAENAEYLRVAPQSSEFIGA
T1 sequence (Q9ULK4 whole entry D400A/H449G): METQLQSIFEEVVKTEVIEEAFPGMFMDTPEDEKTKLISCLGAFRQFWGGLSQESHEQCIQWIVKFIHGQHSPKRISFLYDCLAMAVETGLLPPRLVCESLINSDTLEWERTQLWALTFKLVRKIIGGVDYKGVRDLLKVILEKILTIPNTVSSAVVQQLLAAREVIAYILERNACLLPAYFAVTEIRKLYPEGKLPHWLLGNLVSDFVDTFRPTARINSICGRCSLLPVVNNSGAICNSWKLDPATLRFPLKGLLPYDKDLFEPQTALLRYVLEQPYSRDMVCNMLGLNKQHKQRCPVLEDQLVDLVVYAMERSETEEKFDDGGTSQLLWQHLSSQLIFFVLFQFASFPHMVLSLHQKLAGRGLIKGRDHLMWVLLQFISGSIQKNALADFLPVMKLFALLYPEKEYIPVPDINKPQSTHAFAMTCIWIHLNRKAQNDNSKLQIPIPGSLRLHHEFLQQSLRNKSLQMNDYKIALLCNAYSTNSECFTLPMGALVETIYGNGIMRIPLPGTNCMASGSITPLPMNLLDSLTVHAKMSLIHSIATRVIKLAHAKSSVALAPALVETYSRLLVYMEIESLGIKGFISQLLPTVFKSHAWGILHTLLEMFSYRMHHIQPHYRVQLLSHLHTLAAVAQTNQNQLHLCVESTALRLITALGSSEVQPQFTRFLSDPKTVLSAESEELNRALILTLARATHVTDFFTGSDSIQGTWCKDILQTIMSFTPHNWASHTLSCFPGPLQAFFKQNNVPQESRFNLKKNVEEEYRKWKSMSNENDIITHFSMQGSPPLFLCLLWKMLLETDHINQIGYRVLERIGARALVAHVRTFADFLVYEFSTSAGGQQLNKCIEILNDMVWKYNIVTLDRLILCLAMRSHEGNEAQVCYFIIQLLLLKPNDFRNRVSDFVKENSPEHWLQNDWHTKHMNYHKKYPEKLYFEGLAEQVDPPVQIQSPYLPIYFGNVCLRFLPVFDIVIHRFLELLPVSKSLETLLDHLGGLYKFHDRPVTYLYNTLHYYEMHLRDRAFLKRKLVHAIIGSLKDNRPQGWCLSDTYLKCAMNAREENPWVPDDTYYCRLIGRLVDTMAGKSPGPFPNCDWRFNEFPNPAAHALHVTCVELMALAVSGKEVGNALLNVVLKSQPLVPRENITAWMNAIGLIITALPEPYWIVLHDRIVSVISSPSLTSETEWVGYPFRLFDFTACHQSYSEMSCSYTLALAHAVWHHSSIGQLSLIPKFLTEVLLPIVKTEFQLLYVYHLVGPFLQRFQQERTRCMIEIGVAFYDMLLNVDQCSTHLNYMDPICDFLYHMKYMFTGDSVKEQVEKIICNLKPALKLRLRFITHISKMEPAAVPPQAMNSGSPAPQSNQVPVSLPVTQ
Chain of MED23391-625 fragment (Q9ULK4 391-625): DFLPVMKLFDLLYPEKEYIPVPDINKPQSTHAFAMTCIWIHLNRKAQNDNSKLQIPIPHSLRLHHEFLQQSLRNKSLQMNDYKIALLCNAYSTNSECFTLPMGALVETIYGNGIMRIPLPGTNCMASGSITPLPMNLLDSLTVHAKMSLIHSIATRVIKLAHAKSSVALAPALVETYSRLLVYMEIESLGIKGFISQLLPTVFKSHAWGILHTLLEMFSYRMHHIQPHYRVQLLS

Structure (SMILES): CC(=O)N1N=C(c2cccc(O)c2)CC1c1ccc(Cl)cc1 (stereo not shown) [Compound 15, 1-[5-(4-Chlorophenyl)-3-(3-hydroxyphenyl)-4,5-dihydropyrazol-1-yl]-ethanone]
- growth of NCI-N87 cells [1]: significantly inhibited the growth of NCI-N87 cells
- IC50 ([1]; Homo sapiens, NCI-N87, HER2-positive): 1.56 ± 0.14 µM
- IC50 [2]: 9.99 ± 0.2 µM
- binding to double mutant MED23 [3]: unable to bind to the double mutant MED23^D400A/H449G
- interaction with MED23 fragments [4]: specifically interacted with the MED23391-625 fragment
- inhibition at 10 µM ([5]; 10 μM): 0%
- inhibition at 25 µM ([5]; 25 μM): 0%
- HER2 levels reduction [6]: approximately 1.8 fold
- proliferation marker Ki-67 [7]: significant decrease
- permeability [8]: reasonable
- half-life T1/2 (IV) ([9]; intravenous): 9.74 ± 2.76 h
- bioavailability (Ft) ([9]; intravenous and oral routes): 25.1%
- anticancer effect in TZMB-sensitive cells [10]: significant anticancer effects not only in TZMB-sensitive cells but also in TZMB-resistant cells
- HER2 expression and downstream signaling [11]: significantly downregulated HER2 expression and downstream signaling, including phosphorylated AKT and MAPK
- effect against TZMB resistance in clonal analysis [12]: effective against TZMB resistance
- tumor growth and volume [13]: significant decrease in tumor growth and volume
- HER2 levels [14]: significant reduction in HER2 levels
- proliferation marker Ki-67 [15]: significantly reduced in the candidate compound-treated group compared to the TZMB-treated group
- body weight [16]: remained generally consistent

Source: patent publication US20260373119A1, “NOVEL COMPOUND, AND COMPOSITION FOR PREVENTING OR TREATING HER2-POSITIVE CANCER, COMPRISING SAME” (EWHA UNIVERSITY - INDUSTRY COLLABORATION FOUNDATION, priority 2022, published 2026)
